This note sets out measurements from patent US4337267A, “Phenalkoxyalkyl- and phenoxyalkyl-substituted oxiranecarboxylic acids, their use and medicaments containing them” (Byk Gulden Lomberg Chemische Fabrik GmbH, priority 1980, dated 1982).

Data set [1] has as its system blood glucose concentration. In words: Determination of glucose in the blood after a single oral administration (fasting, metabolically healthy rats). The class given is in vivo, rat (young male Sprague-Dawley). To be noted: Rattus norvegicus. The method, then:
Table I reflects investigations of the effect of representative compounds according to the invention on the blood glucose concentration of fasting, metabolically healthy rats which are observed for 6 hours after a single oral administration of from 0.01 to 0.6 mmol of substance/kg of body weight.
1. Determination of glucose in the blood after a single oral administration-
Young male Sprague-Dawley rats (body weight: 150 to 200 g) are used. The animals are kept in Makrolon cages with up to 4 animals per cage (ambient temperature: 23° C., relative atmospheric humidity: 55%, fixed day/night rhythm [12/12 hours], standard diet: Altromin®). The rats are deprived of the feed 18 hours before the first sample of blood is taken. Water is available ad libitum. Samples of blood are taken from the postorbital plexus by puncture immediately before and 3 and 6 hours after administration of the substance.
After deproteinization with perchloric acid, the glucose in the blood is determined by means of the enzymatic HK/G-6-PDH method of R. Richterich [Klinische Chemie, Theorie und Praxis, (Clinical Chemistry, Theory and Practice), 3rd edition, 1971, S. Karger Verlag, Zurich-Basle, page 275]. A control group (treated with pure solvent) is also investigated in each case for comparison.

Data set [2] is described as follows: in vivo. Particulars: mouse, po. The method, then: Column C provides data relating to acute toxicity (LD50; mice, peroral administration).
2. Determination of the toxicity-
Various doses of the substances (volume: 10 ml/kg) are administered orally by means of a stomach tube. The observation time is 7 days.

[3] abbreviates: rats p.o., single dose, fasting, observed for 6 hours, with reference to control group, read-out: ED50 (15%): dose which effects a lowering of the blood glucose concentration by at least 15% in 50% of the animals.
Where [4] appears, read: rats p.o., single dose, fasting, observed for 6 hours, with reference to control group, read-out: ED50 (25%): dose which effects a lowering of the blood glucose concentration by at least 25% in 50% of the animals.

Read-outs that look alike come from different tables or passages of the source.

As a reminder, the LD50 is the dose at which mortality reaches 50%. With `CCOC(=O)C1(CCCCOc2cccc(Cl)c2)CO1` (stereo not drawn) [Serial No. 3, 2-[4-(3-Chlorophenoxy)butyl]oxirane-2-carboxylic acid ethyl ester], the ED50 was 3 mg/kg in data set [1] (setting [3]) and 24 mg/kg in data set [1] (setting [4]). The compound further yielded an LD50 at 168 h in data set [2] of 390 mg/kg.

As for `CCOC(=O)C1(CCCCOc2ccc(C)cc2)CO1` (stereo not drawn) [Serial No. 7, 2-[4-(4-Methylphenoxy)butyl]oxirane-2-carboxylic acid ethyl ester], the ED50 in data set [1] (setting [3]) is 8 mg/kg; in data set [1] (setting [4]), 19 mg/kg.

Take `CCOC(=O)C1(CCCCOc2cccc(C(F)(F)F)c2)CO1` (stereo not drawn) [Serial No. 4, 2-[4-(3-Trifluoromethylphenoxy)butyl]oxirane-2-carboxylic acid ethyl ester]: the results for the ED50 in data set [1] (setting [3]) and in data set [1] (setting [4]) were ~7 mg/kg and 13 mg/kg, respectively. The compound further returned an LD50 at 168 h in data set [2] of 460 mg/kg.

As for `CCOC(=O)C1(CCCCCOc2ccc(Cl)cc2)CO1` (stereo not drawn) [Serial No. 6, 2-[5-(4-Chlorophenoxy)pentyl]oxirane-2-carboxylic acid ethyl ester], the ED50 in data set [1] (setting [3]) turned out to be 5 mg/kg; in data set [1] (setting [4]), 6 mg/kg. The LD50 at 168 h in data set [2] turned out to be 310 mg/kg.

For `CCOC(=O)C1(CCCCCCOc2ccc(Cl)cc2)CO1` (stereo not drawn) [Serial No. 5, 2-[6-(4-Chlorophenoxy)hexyl]oxirane-2-carboxylic acid ethyl ester], the ED50 is < 7 mg/kg in data set [1] (setting [3]) and 7 mg/kg in data set [1] (setting [4]). In data set [2], this compound came in with an LD50 at 168 h of 300 mg/kg.

In the case of `[H]/N=C(/N)N/C(=N/[H])NCCc1ccccc1` [Serial No. 2, Phenformin, reference compound], the results for the ED50 in data set [1] (setting [3]) and in data set [1] (setting [4]) were > 150 mg/kg and > 343 mg/kg, respectively.

Turning to `CCCCNC(=N)NC(=N)N` [Serial No. 1, Buformin, reference compound], the ED50 in data set [1] (6 h, read-out: ED50 (15%): dose which effects a lowering of the blood glucose concentration by at least 15% in 50% of the animals) was > 100 mg/kg; in data set [1] (6 h, read-out: ED50 (25%): dose which effects a lowering of the blood glucose concentration by at least 25% in 50% of the animals), 194 mg/kg.
